Data on 2 compounds can be found in EP4600258A1, “KERATIN YK93-6, PREPARATION METHOD THEREFOR, PHARMACEUTICAL COMPOSITION THEREOF, AND USE THEREOF” (INSTITUTE OF MATERIA MEDICA, CHINESE ACADEMY OF MEDICAL …, priority 2022, dated 2024).

Data set [1] relates to mouse pain model. The experiment in a line: Pharmacodynamic test on mouse pain model (acetic acid-induced writhing). To be noted: dose 50mg/kg; writhing within 15 minutes after 1% acetic acid intraperitoneally. In kind it is in vivo, Male Kunming mice.
Data set [2] has as its system EL-4 lymphoma. The settings on record: single time.
Method: Subcutaneous inoculation of EL-4 cell suspension to replicate a mouse lymphoma model: The EL-4 tumor tissue was ground into a suspension using a glass homogenizer, the tumor suspension was aspirated with a syringe, the number of live cells was calculated, the cell concentration was adjusted to 2.0*10^6/ml with physiological saline, and then the suspension was injected into the left armpit of mice with 0.2 ml/mouse. […] On the day of treatment, weight was measured, 20µl of blood was obtained from the orbital blood and the routine blood analysis was performed.
The data from the groups were compared with each other by T.TEST, and P<0.05 was considered as a significant difference.
The mark [3] stands for this setting: 100 mg/kg intraperitoneal, blood routine test, P<0.05.

Structures can show the parent of a compound that is named as a salt.

Take `COc1cccc(C2(O)CCCCC2CN(C)C)c1` (stereo not drawn) [Tramadol Hydrochloride]: the Number of writhing in data set [1] is recorded as 0.375±0.74.
Regarding `O=P1(N(CCCl)CCCl)NCCCO1` (stereo not drawn) [cyclophosphamide, Cyclophosphamide], in data set [2] (setting [3]), the leukocytes result is reported as “significantly reduced”, the lymphocytes entry was “significantly reduced”, the monocytes result is on record as “significantly reduced” and the neutrophils entry is listed as “significantly reduced”. For the same compound, the Tumor weight in data set [2] (dose 0.1 g/kg, intraperitoneal) came out at 0.12 ± 0.03 g.
